The values below come from PMC4865845, “A human genome-wide loss-of-function screen identifies effective chikungunya antiviral drugs” (Nature Communications, 2016).

In this data set the test system is CHIKV. In kind it is cell-based, chikungunya virus.
With “Hs_THRAP6_1 (sense ATGAAAGATTATTGTAATAAA; chemistry not given here) [reference compound]”, the Score_si2 is given as -1.47. In turn, “Hs_GBF1_1 (sense AAGAATATTTACATCATTCAA; chemistry not given here)” came in with a Score_si4 of 1.75. As to “s31791 (GACCTTAAGATACCAGTAT; chemistry not given here)”, the Score_si2 amounted to 1.71. Substance “s28991 (GAAGAGGTTTTGGAGTATA; chemistry not given here)” displayed a Score_si4 of 0.22. The same measure, in the same setting: to “Hs_PSD3_2 (sense ACCAAACGTGTTTAAACTTAA; chemistry not given here) [reference compound]” belongs -0.52. Substance “Hs_GUCY1B3_3 (sense CAAGACTTTCTTCTAGATATA; chemistry not given here) [reference compound]” came in with a Score_si3 of -0.83. “s36691 (CAGATGTTATGGATATAAT; chemistry not given here) [reference compound]”: the Score_si1 is given as -1.07.

“Hs_GAP43_1 (sense CCGGCTCAGCTGAGACAGAAA; chemistry not given here)”: the Score_si1 is 2.5.

In the case of “Hs_PTX3_2 (sense AAGAAAGAAACTCACACTTAA; chemistry not given here)”, the Score_si1 came out at 1.48.

“s19989 (sense CTATGCTACCCTCTACTTT; chemistry not given here)” showed a Score_si4 of 0.18. As for “Hs_GPS1_6 (sense CAGCCTGGATCTGGAACAGTA; chemistry not given here)”, the Score_si2 is reported as 1.76. Substance “Hs_RAD51L3_2 (sense CTCACTCTCTGTAAGCATATA; chemistry not given here)” registered a Score_si3 of 0.7. Substance “Hs_HSPE1_4 (sense CTGAAATAAGTCACTATTGAA; chemistry not given here)” had a Score_si4 of 1.81. With “Hs_FTSJ2_2 (sense CAGAATGTAAGGATCATCAAA; chemistry not given here)”, the Score_si3 is recorded as 1.86. Substance “Hs_KAZALD1_1 (sense CCGGAGGAGCTGCTTTCTGAA; chemistry not given here)” returned a Score_si2 of 1.12. “s15684 (sense GGAGCTGATCATCAACAAA; chemistry not given here)” returned a Score_si4 of 1.33.

Regarding “s30117 (GGTCTTTGGTGGTGTACAA; chemistry not given here)”, the Score_si3 was determined as 0.96.

As for “Hs_CCNF_7 (sense CACGGACAACACTTACAAGTA; chemistry not given here)”, the Score_si3 turned out to be 0.92. As for “Hs_PCBP1_3 (CACAACTTTATCATCCGCTAA; chemistry not given here)”, the Score_si2 is given as 1.85. On the same count and under the same terms, for “s35401 (GGAACAAACTAGCCCTCAA; chemistry not given here)” the value was 0.91.

The substance “s9339 (TCACTTCTAGTTTTACTTT; chemistry not given here) [reference compound]” yielded a Score_si3 of -0.69.

“Hs_EXOSC1_1 (TTCATTCTCTTGAGTAATAAA; chemistry not given here) [reference compound]” had a Score_si4 of 0.51.

As for “Hs_ITGB4BP_3 (sense CAGGGAGACAGAAGAAATTCT; chemistry not given here)”, the Score_si1 is reported as 1.54. On the same count and under the same terms, for “s26873 (sense CTTCGAGACCGGTTCAAGA; chemistry not given here)” the value was 2.15. “Hs_PTBP1_18 (sense GCGCGTGAAGATCCTGTTCAA; chemistry not given here) [reference compound]” came in with a Score_si4 of -0.53. Same read-out and setting: to “Hs_LOXL2_4 (sense CTCGAGATTCCGGAAAGCATA; chemistry not given here)” belongs 0.97. As to “s16046 (GCACAGATCCTTCCGTTTA; chemistry not given here) [reference compound]”, the Score_si3 is given as -0.45.

“Hs_CCNF_2 (sense AACCCAAGCGTTGGAACTGTA; chemistry not given here)”: the Score_si1 was 2.05. Regarding “Hs_SYMPK_2 (sense CAGCCTGGTGACACAGTTCAA; chemistry not given here)”, the Score_si2 came to 1.86.

In turn, “Hs_GNG13_3 (sense CCCACTCACAACATCTTGTAA; chemistry not given here)” gave a Score_si4 of 0.93. In turn, “s15686 (sense CCATCCACATGTACATCAA; chemistry not given here)” yielded a Score_si2 of 1.49. “Hs_ATP6AP2_1 (ATGGGCTAATATGGATACTAA; chemistry not given here)”: the Score_si2 is 0.84. Substance “Hs_EEF2_2 (TGCCGTTTCTTTCAATATTTA; chemistry not given here)” displayed a Score_si1 of 2.07. “s20630 (sense GCAAGCTGCTGATCGAGTT; chemistry not given here)” came in with a Score_si4 of 0.85. For the substance “s31658 (CGGCCTCTGAGGTGATCAA; chemistry not given here)”, the Score_si2 was determined as 1.55.

With “Hs_COPS2_3 (sense ATGAATAGATATAAGCAGCTA; chemistry not given here)”, the Score_si1 is recorded as 2.07. On the same count and under the same terms, to “Hs_CLTC_11 (sense ACAGTTCTACTTAGAATTCAA; chemistry not given here)” belongs 2.42. Substance “Hs_CHD8_1 (sense CAGGAGGTTATTGGAGACCAA; chemistry not given here)” displayed a Score_si2 of 1.61. As for “s994 (GAGGAAGTCCTAAATCACA; chemistry not given here) [reference compound]”, the Score_si4 was found to be 1.87. The substance “Hs_PP3856_2 (CTGGCTGGAGTCAGTCCTCAT; chemistry not given here)” yielded a Score_si1 of 2.53.

Take “s3112 (GGATGAGATTCTAGACTTT; chemistry not given here)”: the Score_si3 is on record as 1.86. As for “Hs_FLJ10134_2 (CTCCTTGACCATGGAATTATA; chemistry not given here)”, the Score_si2 was determined as 1.53. Take “s5296 (sense GCTTCACCATCGAATCCAA; chemistry not given here)”: the Score_si3 was found to be 1.01. “s5082 (sense CCTCGATAATATAACACGA; chemistry not given here)” gave a Score_si4 of 0.67.

In turn, “s16634 (GCATAGTTTCGGTCATCTA; chemistry not given here)” gave a Score_si1 of 2.03. The substance “Hs_UQCRFS1_2 (CAAACATTAATGTGAAATAAA; chemistry not given here)” yielded a Score_si4 of 0.3. Substance “s26120 (sense GGCCCTTCATCGATAGCTA; chemistry not given here) [reference compound]” yielded a Score_si2 of -0.97. As to “Hs_FLJ00193_2 (GAGCAGCTACATGGAGATGAA; chemistry not given here)”, the Score_si1 is recorded as 2.41. The same measure, in the same setting: to “Hs_CDK4_2 (sense CAAGGTAACCCTGGTGTTTGA; chemistry not given here)” belongs 1.6. “s18269 (CCATTGCGGAGATCAAGAA; chemistry not given here)” had a Score_si4 of 0.18. For the substance “Hs_SIN3A_5 (sense GAGCGTGTAAGCAAGCGTCTA; chemistry not given here)”, the Score_si1 is recorded as 2.49. “s195299 (sense ACACATATGTGATCAAGCT; chemistry not given here)” showed a Score_si4 of 0.72.
